From ChEMBL document CHEMBL3797052 (Eur J Med Chem, 2016)

How the values were obtained:
Type in all cases: functional
[1] = Cytotoxicity against human HCT116 cells assessed as growth inhibition at 100 uM after 2 days by MTT assay; conditions: HCT-116, 48 h, read-out: GI
[2] = Cytotoxicity against human HCT116 cells assessed as growth inhibition at 10 uM after 2 days by MTT assay; conditions: HCT-116, 48 h, read-out: GI
[3] = Cytotoxicity against human SKBR3 cells assessed as growth inhibition at 100 uM after 2 days by MTT assay; conditions: SK-BR-3, 48 h, read-out: GI
[4] = Cytotoxicity against human SKBR3 cells assessed as growth inhibition at 10 uM after 2 days by MTT assay; conditions: SK-BR-3, 48 h, read-out: GI
[5] = Antiproliferative activity against human HL-60(TB) cells assessed as cell growth at 10^-5 M after 48 hrs by sulforhodamine B assay; conditions: HL-60, 48 h, read-out: Activity
K562 = experiment: Antiproliferative activity against human K562 cells assessed as cell growth at 10^-5 M after 48 hrs by sulforhodamine B assay; conditions: K562, 48 h, read-out: Activity
[6] = Antiproliferative activity against human MOLT4 cells assessed as cell growth at 10^-5 M after 48 hrs by sulforhodamine B assay; conditions: MOLT-4, 48 h, read-out: Activity
SR = experiment: Antiproliferative activity against human SR cells assessed as cell growth at 10^-5 M after 48 hrs by sulforhodamine B assay; conditions: read-out: Activity
A549 = experiment: Antiproliferative activity against human A549/ATCC cells assessed as cell growth at 10^-5 M after 48 hrs by sulforhodamine B assay; conditions: A549, 48 h, read-out: Activity
EKVX = experiment: Antiproliferative activity against human EKVX cells assessed as cell growth at 10^-5 M after 48 hrs by sulforhodamine B assay; conditions: read-out: Activity
NCI-H226 = experiment: Antiproliferative activity against human NCI-H226 cells assessed as cell growth at 10^-5 M after 48 hrs by sulforhodamine B assay; conditions: NCI-H226, 48 h, read-out: Activity
NCI-H460 = experiment: Antiproliferative activity against human NCI-H460 cells assessed as cell growth at 10^-5 M after 48 hrs by sulforhodamine B assay; conditions: NCI-H460, 48 h, read-out: Activity
NCI-H522 = experiment: Antiproliferative activity against human NCI-H522 cells assessed as cell growth at 10^-5 M after 48 hrs by sulforhodamine B assay; conditions: NCI-H522, 48 h, read-out: Activity
[7] = Antiproliferative activity against human COLO205 cells assessed as cell growth at 10^-5 M after 48 hrs by sulforhodamine B assay; conditions: COLO 205, 48 h, read-out: Activity
[8] = Antiproliferative activity against human HCC2998 cells assessed as cell growth at 10^-5 M after 48 hrs by sulforhodamine B assay; conditions: HCC 2998, 48 h, read-out: Activity
[9] = Antiproliferative activity against human HCT116 cells assessed as cell growth at 10^-5 M after 48 hrs by sulforhodamine B assay; conditions: HCT-116, 48 h, read-out: Activity
HT-29 = experiment: Antiproliferative activity against human HT-29 cells assessed as cell growth at 10^-5 M after 48 hrs by sulforhodamine B assay; conditions: HT-29, 48 h, read-out: Activity
[10] = Antiproliferative activity against human SW620 cells assessed as cell growth at 10^-5 M after 48 hrs by sulforhodamine B assay; conditions: SW-620, 48 h, read-out: Activity
[11] = Antiproliferative activity against human SF268 cells assessed as cell growth at 10^-5 M after 48 hrs by sulforhodamine B assay; conditions: SF-268, 48 h, read-out: Activity
[12] = Antiproliferative activity against human SF295 cells assessed as cell growth at 10^-5 M after 48 hrs by sulforhodamine B assay; conditions: SF-295, 48 h, read-out: Activity
[13] = Antiproliferative activity against human SNB75 cells assessed as cell growth at 10^-5 M after 48 hrs by sulforhodamine B assay; conditions: SNB-75, 48 h, read-out: Activity
U-251 = experiment: Antiproliferative activity against human U251 cells assessed as cell growth at 10^-5 M after 48 hrs by sulforhodamine B assay; conditions: U-251, 48 h, read-out: Activity
[14] = Antiproliferative activity against human LOXIMVI cells assessed as cell growth at 10^-5 M after 48 hrs by sulforhodamine B assay; conditions: LOX IMVI, read-out: Activity
Malme-3M = experiment: Antiproliferative activity against human MALME-3M cells assessed as cell growth at 10^-5 M after 48 hrs by sulforhodamine B assay; conditions: read-out: Activity
[15] = Antiproliferative activity against human IGROV1 cells assessed as cell growth at 10^-5 M after 48 hrs by sulforhodamine B assay; conditions: IGROV-1, 48 h, read-out: Activity
[16] = Antiproliferative activity against human OVCAR3 cells assessed as cell growth at 10^-5 M after 48 hrs by sulforhodamine B assay; conditions: OVCAR-3, 48 h, read-out: Activity
[17] = Antiproliferative activity against human OVCAR5 cells assessed as cell growth at 10^-5 M after 48 hrs by sulforhodamine B assay; conditions: OVCAR-5, 48 h, read-out: Activity
[18] = Antiproliferative activity against human OVCAR8 cells assessed as cell growth at 10^-5 M after 48 hrs by sulforhodamine B assay; conditions: OVCAR-8, 48 h, read-out: Activity
[19] = Antiproliferative activity against human SKOV3 cells assessed as cell growth at 10^-5 M after 48 hrs by sulforhodamine B assay; conditions: SK-OV-3, 48 h, read-out: Activity
[20] = Antiproliferative activity against human RXF393 cells assessed as cell growth at 10^-5 M after 48 hrs by sulforhodamine B assay; conditions: RXF 393, 48 h, read-out: Activity
SN12C = experiment: Antiproliferative activity against human SN12C cells assessed as cell growth at 10^-5 M after 48 hrs by sulforhodamine B assay; conditions: read-out: Activity
[21] = Antiproliferative activity against human TK10 cells assessed as cell growth at 10^-5 M after 48 hrs by sulforhodamine B assay; conditions: TK-10, 48 h, read-out: Activity
[22] = Antiproliferative activity against human UO31 cells assessed as cell growth at 10^-5 M after 48 hrs by sulforhodamine B assay; conditions: UO-31, 48 h, read-out: Activity
MCF7 = experiment: Antiproliferative activity against human MCF7 cells assessed as cell growth at 10^-5 M after 48 hrs by sulforhodamine B assay; conditions: MCF7, 48 h, read-out: Activity
[23] = Antiproliferative activity against human BT549 cells assessed as cell growth at 10^-5 M after 48 hrs by sulforhodamine B assay; conditions: BT-549, 48 h, read-out: Activity
MDA-MB-468 = experiment: Antiproliferative activity against human MDA-MB-468 cells assessed as cell growth at 10^-5 M after 48 hrs by sulforhodamine B assay; conditions: MDA-MB-468, 48 h, read-out: Activity
786-0 = experiment: Antiproliferative activity against human 786-0 cells assessed as cell growth at 10^-5 M after 48 hrs by sulforhodamine B assay; conditions: 786-0, 48 h, read-out: Activity

SMILES | inhibition of growth at 100 µM [1] [%] | inhibition of growth at 10 µM [2] [%] | inhibition of growth at 100 µM [3] [%] | inhibition of growth at 10 µM [4] [%] | growth at 10 µM [5] [%] | growth at 10 µM (K562) [%] | growth at 10 µM [6] [%] | growth at 10 µM (SR) [%] | growth at 10 µM (A549) [%] | growth at 10 µM (EKVX) [%] | growth at 10 µM (NCI-H226) [%] | growth at 10 µM (NCI-H460) [%] | growth at 10 µM (NCI-H522) [%] | growth at 10 µM [7] [%] | growth at 10 µM [8] [%] | growth at 10 µM [9] [%] | growth at 10 µM (HT-29) [%] | growth at 10 µM [10] [%] | growth at 10 µM [11] [%] | growth at 10 µM [12] [%] | also measured
CNC(=O)c1cc(Oc2ccc3nc(NC(=O)c4ccc(Cl)c(C(F)(F)F)c4)sc3c2)ccn1 | 92.3 | 30.2 | 86.5 | 6.26 | 89.4 | 69.9 | 67.3 | 37.6 | 71.7 | 78.8 | 93.4 | 56.4 | 57.3 | 80.4 | 74.8 | 61.9 | 68.1 | 92.4 | 85.3 | 78.3 | growth at 10 µM [13]: 39%; growth at 10 µM (U-251): 59.2%; growth at 10 µM [14]: 71.2%; growth at 10 µM (Malme-3M): 57%; growth at 10 µM [15]: 85.8%; growth at 10 µM [16]: 66.4%; growth at 10 µM [17]: 93.3%; growth at 10 µM [18]: 57.2%; growth at 10 µM [19]: 85.3%; growth at 10 µM [20]: 47.9%; growth at 10 µM (SN12C): 75.6%; growth at 10 µM [21]: 92.8%; growth at 10 µM [22]: 80.4%; growth at 10 µM (MCF7): 64.1%; growth at 10 µM [23]: 80.6%; growth at 10 µM (MDA-MB-468): 48.5%
CNC(=O)c1cc(Oc2ccc3nc(NC(=O)Nc4ccc(Cl)c(Cl)c4)sc3c2)ccn1 | 91.9 | 69.8 | 92.6 | 69 | 95 | 55 | 76 | 39 | -62 | 16 | -56 | -40 | 20 | 16 | 29 | -50 | -61 | 42 | -57 | -81 | growth at 10 µM [13]: -69%; growth at 10 µM (U-251): -84%; growth at 10 µM [14]: -79%; growth at 10 µM (Malme-3M): -71%; growth at 10 µM [15]: -20%; growth at 10 µM [16]: -37%; growth at 10 µM [18]: -40%; growth at 10 µM [19]: -74%; growth at 10 µM (786-0): -41%; growth at 10 µM [20]: -74%; growth at 10 µM (SN12C): 14%; growth at 10 µM [21]: -4%; growth at 10 µM [22]: -72%; growth at 10 µM (MCF7): 4%; growth at 10 µM [23]: 26%; growth at 10 µM (MDA-MB-468): -36%
